System: Plasmodium falciparum
Assay: GSK_TCMDC: Inhibition of Plasmodium falciparum 3D7 in whole erythrocytes, using parasite LDH activity as an index of growth.
Format: functional, organism-based
Settings: Plasmodium falciparum, 3D7

Row | Structure (SMILES) | XC50 [nM]
1 | COc1cccc2c(N/N=C/c3cccc([N+](=O)[O-])c3)ccnc12 | 748
2 | CCN(CC)CCN(Cc1ccc(-c2ccc(C(F)(F)F)cc2)cc1)C(=O)Cn1c(CCc2cccc(F)c2F)nc(=O)c2ccc(C)cc21 | 668
3 | c1ccc2c(Nc3ccc(Cc4ccc(Nc5c6ccccc6nc6ccccc56)cc4)cc3)c3ccccc3nc2c1 | 162
4 | COc1cccc(-c2cccc(CNC3CCN(CC4Cn5c(=O)ccc6ccc(F)c4c65)CC3)c2)c1 (stereo not drawn) | 934
5 | Cc1cc(N[C@@H](CC(C)C)C(=O)NCc2cccs2)nc(NCCc2cccs2)n1 | 1020
6 | CC(C)(C)c1ccc(CN2CCC(CNC(=O)c3cc(-c4ccccc4C(F)(F)F)cs3)C2)cc1 (stereo not drawn) | 1240
7 | CCCCCCc1cnc2nc(N)nc(N)c2c1C | 194
8 | COc1cc2nc(NCCc3ccccc3)nc(NCc3cnn(C)c3C)c2cc1OC | 711
9 | O=C(NCCNc1noc(-c2sccc2Br)n1)c1ccc(Cl)cc1 | 1170
10 | CC(C)[C@H](NCC(=O)c1ccccc1)C(=O)O | 783
11 | O=C(Nc1ccc(Br)cc1)c1cc(Br)ccc1NS(=O)(=O)c1cc(C(F)(F)F)cc(C(F)(F)F)c1 | 885
12 | CCc1cn2c3c(cc(C(=O)N[C@@H](Cc4ccccc4)[C@H](O)CNCCOC)cc13)N(C)S(=O)(=O)CC2 | 954
13 | CCCCNCC(O)COc1ccccc1-c1ccc(N/N=C/c2cccc3ccccc23)nn1 (stereo not drawn) | 891
14 | COC(C(=O)OCCC1CCCN1C)(c1ccccc1)C1CCCCC1 (stereo not drawn) | 711
15 | CCCc1cnc2nc(N)nc(N)c2c1C | 1120
16 | Cc1cc(N[C@@H](Cc2ccccc2)C(=O)NCCc2ccccc2)nc(NCCc2ccc(F)cc2)n1 | 661
17 | CN(Cc1ccc(NC(=O)CCC2CCN(C(=O)/C=C/c3ccc(Cl)c(Cl)c3)CC2)cc1)C1CCOCC1 | 1730
18 | Cc1nc(-c2cccc(C(=O)Nc3cnc4ccccc4c3)c2)no1 | 1160
19 | N#Cc1ccc(N(CC(=O)NCCc2ccc(F)cc2)CC2CC2)c2ccccc12 | 932
20 | COc1ccc2nccc(N3CCC(CCNCc4cc5c(cn4)OCCO5)CC3)c2c1 | 874
21 | O=C(NC1CCC(N2CCN(c3cccc(C(F)(F)F)c3)CC2)CC1)c1cc2ccccc2[nH]1 (stereo not drawn) | 723
22 | CCC(C)c1ccc(NC(=O)c2ccc(S(=O)(=O)Nc3ccc(OC)c(N4CCN(CC5CC5)CC4)c3)cc2)cc1 (stereo not drawn) | 703
23 | COc1ccc(Nc2nccc(N3CCC(NC(=O)C(C)c4ccc(Cl)cc4)C3)n2)cc1 (stereo not drawn) | 1010
24 | CC(C)C[C@@H](C(=O)N[C@H](C(=O)Nc1nccs1)C(C)(C)C)[C@H](CCC(F)(F)F)N(O)C=O | 598
25 | Cc1ccc(C(=O)NC2C(=O)NC2c2ccccc2)c(C)c1 (stereo not drawn) | 955

Row | Structure (SMILES) | XC50 [nM]
26 | FC(F)(F)Oc1cccc(CNc2noc(-c3sccc3Br)n2)c1 | 875
27 | COc1ccc(CN2CCCC(OC(c3ccc(F)cc3)c3ccc(F)cc3)C2)c(O)c1 (stereo not drawn) | 607
28 | CC1CCCN1Cc1cccc(-c2ccc(C(=O)NCCOc3ccccc3)s2)c1 (stereo not drawn) | 925
29 | C[C@@H](C(N)=O)N1CCCCC1c1ccc(OCc2cccc(F)c2)cc1 (stereo partly drawn) | 989
30 | O=C(Nc1ccccc1)NC1CCN(CCC2(c3ccc(Cl)c(Cl)c3)COCN(C(=O)c3ccccc3)C2)C1 (stereo not drawn) | 880
31 | O=C(Nc1ccc(-c2nc3ccccc3[nH]2)cc1)c1ccc([N+](=O)[O-])s1 | 252
32 | Cc1noc(-c2ccccc2)c1NC(=O)N1CCN(CCCCCCNC(=O)/C=C/c2ccc(Cl)c(Cl)c2)CC1 | 884
33 | O=C(/C=C/c1ccc(Cl)cc1)NCCCCCN1CCC(C(=O)Nc2cccc(Cl)c2)CC1 | 853
34 | Cc1nc(-c2cccc3c(NC(=O)Nc4ccc5nccc(N6CCN(C)CC6)c5c4)cccc23)no1 | 235
35 | O=C(/C=C/c1ccc(-c2nc3cc(F)c(F)cc3[nH]2)cc1)NCc1ccc(Cl)c(Cl)c1 | 938
36 | COc1ccc(CNc2ncc(-c3ccsc3)c(-c3nccs3)n2)cc1OC | 89
37 | COc1ccc2nccc(N3CCC(CCNCc4ccc5c(n4)NC(=O)CO5)CC3)c2c1 | 705
38 | FC(F)(F)COc1ccc(CNCCCCCCNCc2ccc(OCC(F)(F)F)c3ccccc23)c2ccccc12 | 400
39 | Cc1ccc(Nc2nccc(NCC(O)c3cccc(F)c3)n2)cc1 (stereo not drawn) | 675
40 | Cc1cccc(NC(=O)NC2CCN(CCCCCNC(=O)/C=C/c3ccc(Cl)c(Cl)c3)CC2)c1 | 753
41 | COc1ccccc1C1CCN(Cc2csc(NC(=O)c3ccc(-c4ccc(C(F)(F)F)cc4)cc3)n2)CC1 | 954
42 | Cc1cc(F)ccc1-c1nc(NCCCN2CCCC2=O)nc2c1ccc(=O)n2-c1c(F)cccc1F | 1020
43 | COc1cccc(CNC[C@@H](O)[C@H](Cc2ccccc2)NC(=O)c2cc(NC(C)C)cc(N3CCCCS3(=O)=O)c2)c1 | 784
44 | CCc1sc(N2CCN(C)CC2)nc1C(=O)NCCc1ccc(Cl)c(Cl)c1 | 1180
45 | CC1(C)N=C(N)N=C(N)N1OCc1cc2ccccc2cc1CON1C(N)=NC(N)=NC1(C)C | 126
46 | NC(=O)c1ccc(C(=O)Nc2cccc(-c3csc(-c4nc5ccccc5[nH]4)c3)c2)cc1 | 351
47 | COc1ccc(CN2CCCN(Cc3cccc(NC(=O)c4ccc5ccccc5c4)c3)CC2)cc1 | 1000
48 | O=C(O)C[C@H](NC(=O)c1cc(-c2ccc3c(c2)OCO3)no1)C(=O)O.O=C(O)C[C@H](NC(=O)c1conc1-c1ccc2c(c1)OCO2)C(=O)O | 194
49 | CCCc1ccc(NC(=O)c2ccc(CN3CCCN(Cc4cccc(O)c4)CC3)cc2)cc1 | 396
50 | Nc1ncc(-c2ccc(NC(=O)Nc3cc(C(F)(F)F)ccc3F)cc2)c(N)n1 | 719

Row | Structure (SMILES) | XC50 [nM]
51 | O=C(Nc1ccnc2ccccc12)NC1CCN(CCc2ccccc2)CC1 | 364
52 | OCCN1CCN(Cc2ccc(-c3ccc(-c4nc5ccccc5[nH]4)cc3)cc2)CC1 | 616
53 | CC(CN1CCN(CC(c2ccc(F)cc2)N2CCN(C)CC2)CC1)C(=O)c1ccc(O)cc1 (stereo not drawn) | 672
54 | CC(C)c1ccc(OCCCON2C(=N)N=C(N)NC2(C)C)cc1 | 3.2
55 | CC(C)(C)C(Cn1ccnc1)NCc1c[nH]nc1-c1ccc(-c2ccccc2)cc1 (stereo not drawn) | 1060
56 | Cc1nnc(-c2cccc(Nc3ccnc4cc(-c5nccs5)ccc34)c2)o1 | 632
57 | CC(C)CCNC(=O)c1cc(C(=O)c2cc(F)ccc2O)cn(CCC(C)C)c1=O | 753
58 | OC(CNc1ccnc(Nc2ccccc2)n1)c1cccc(C(F)(F)F)c1 (stereo not drawn) | 646
59 | O=C(Nc1ccc(F)c(Cl)c1)NC1CCN(c2ccnc3cc(Cl)ccc23)C1 (stereo not drawn) | 215
60 | Nc1nc(N)c2c(Cl)c(CNc3cccc(C(=O)O)c3)ccc2n1 | 8.88
61 | COc1cccc(CNc2noc(-c3c(-c4ccccc4)noc3C)n2)c1OC | 875
62 | CC(CNCc1cn(Cc2cc(Br)cc(Br)c2)c2ccccc12)CNc1cc(=O)c2ccccc2[nH]1 (stereo not drawn) | 464
63 | CS(=O)(=O)c1cccc(-c2cnc3[nH]cc(-c4ccc(CCC(=O)O)cc4)c3c2)c1 | 634
64 | CCOc1ccc2c(=NN=Cc3cccc(OC)c3)cc(C)[nH]c2c1 | 123
65 | CN1CCC(C(=O)Nc2cccc(-c3ccc(-c4nc5cc(C(F)(F)F)ccc5[nH]4)s3)c2)CC1 | 724
66 | CC(=O)C1=NN(c2ccc(Cl)cc2)C(c2cccs2)N1c1ccccc1 (stereo not drawn) | 397
67 | O=C(Nc1ccc2c(c1)CCC2)c1cccc(N2CCN(c3ccncc3)CC2)c1 | 971
68 | S=C(NCCN1CCOCC1)Nc1ccccc1 | 1020
69 | CC(C)N(CC(=O)c1ccc(O)c(C(=O)O)c1)Cc1ccccc1 | 187
70 | CCOc1cc(C(C)C)ccc1N1CCN(CCCCNC(=O)c2ccc(NC(=O)c3ccc(Cl)cc3)cc2)CC1 | 416
71 | Cc1cccc2nc(-c3ccc(-c4cccc(CNCc5ccccc5)c4)cc3)[nH]c12 | 246
72 | COc1ccc(CNC2CCN(C)CC2)cc1-c1ccc(S(=O)(=O)NCCc2ccccn2)s1 | 624
73 | O=C(Nc1cccc(-c2ccc(-c3nc4cc(F)ccc4[nH]3)s2)c1)c1ccncc1 | 703
74 | CCc1cn2c3c(cc(C(=O)N[C@@H](Cc4cc(F)cc(F)c4)[C@H](O)CNC4CCCCC4)cc13)N(C)S(=O)(=O)CC2 | 34.5
75 | Cc1cc(-c2ccc(NC(=O)Nc3ccc4nccc(N5CCN(C)CC5)c4c3)cc2C)cc(C)n1 | 153

Row | Structure (SMILES) | XC50 [nM]
76 | CN1CCN(c2ccnc3ccc(NC(=O)Cc4ccc(-c5ccncc5)c5ccccc45)cc23)CC1 | 203
77 | O=C(CNCC1CCCCC1)Nc1cc(C(F)(F)F)ccc1Cl | 982
78 | COc1ccc(C(=O)Cn2nc(-c3ccc(Cl)cc3)ccc2=O)c(OC)c1 | 498
79 | COc1ccc2nccc([C@@H](O)CN3CCC(NC(=O)C(c4cc5ccccc5o4)N4CCN(Cc5ccccc5)CC4)CC3)c2c1 (stereo partly drawn) | 163
80 | Cc1cccc(NC(=O)Nc2ccc(I)c(OCCN(C)C)c2)c1C | 725
81 | CNC(=S)NCc1cnc2ccccn12 | 195
82 | CC(CN(C)C)C(=O)Nc1ccc(-c2ccc(-c3nc4ccccc4[nH]3)cc2)cc1 (stereo not drawn) | 741
83 | COc1cc(Cc2cnc(N)nc2N)cc(OC)c1OCCCCCN1C(=O)c2ccccc2C1=O | 618
84 | COc1cccc(-c2ccc3c(-c4cccc(NC(C)=O)c4)cnc(N)c3c2)c1 | 106
85 | CCCCCNc1ccnc2cc(Cl)ccc12 | 509
86 | CC(C)c1ccc(NC(=O)c2ccc(CN3CCCN(CC4CCCCC4)CC3)cc2)cc1 | 615
87 | COc1ccccc1C1CN(Cc2coc3ccccc3c2=O)Cc2ccccc2O1 (stereo not drawn) | 1320
88 | Fc1ccc(COc2ccc(Nc3ncnc4ccc(I)cc34)cc2Cl)cc1 | 1180
89 | COc1ccc(N2CCN(CCCCNC(=O)c3ccc(NC(=O)c4cccc(Cl)c4)cc3)CC2)c(OC)c1 | 911
90 | COc1ccc2nccc([C@@H](O)CN3CCC(NCc4ccc5nsnc5c4)CC3)c2c1 | 958
91 | COc1ccc(Nc2ncc3c(-c4cccc(NC(=O)Cc5cccc(O)c5)c4)c[nH]c3n2)cc1OC | 698
92 | CC(Cc1ccc(OCCCCOc2ccccc2)cc1)NCCCN1CCOCC1 (stereo not drawn) | 725
93 | CC(=O)Nc1ccc(NC(=O)c2cc(-c3ccc(C)cc3O)n[nH]2)cc1 | 490
94 | O=c1cc(N2CCCNCC2)c(Cl)nn1Cc1ccc(NS(=O)(=O)c2ccc(Oc3ccccc3)cc2)cc1 | 800
95 | Cn1cncc1CNCc1ccc(-c2cccc(-c3nc4ccccc4[nH]3)c2)cc1 | 234
96 | CN1CCCN(Cc2ccc(-c3ccc(NC(=O)c4cccc(Cl)c4)cc3)cc2)CC1 | 859
97 | CCC(C)NC(=O)CN1CN(c2ccccc2)C2(CCN(C(=O)c3ccc(C(C)(C)C)cc3)CC2)C1=O (stereo not drawn) | 125
98 | Cc1noc(C)c1-c1cccc(CNCc2ccc(-c3cccc(-c4nc5cccc(C)c5[nH]4)c3)cc2)c1 | 215
